Reference: PMC5291098, “Molecular mutagenesis of ppGpp: turning a RelA activator into an inhibitor” (Scientific Reports, 2017)
“Also recorded” adds a separate entry of the source.

Tested on: T1, RelA binding to 70S initiation complexes
T1 construct: made in house
Experiment: Spin down assay of RelA binding to 70S initiation complexes
Parameters: species or system Escherichia coli
Conditions: 500 μM compound; 2 μM RelA, 1 μM 70S IC programmed with mRNA(MF), with or without tRNAPhe
Protocol: Figure 4 Functional studies of DR-M014 and DR-4250 with programmed ribosomal complexes. (a,b) Inhibition of RelA activated by starved ribosomal complexes containing deacylated A-site tRNA^Phe. The reaction mixture contained 30 nM RelA, 0.5 μM 70S, 2 μM tRNA^Phe, 2 μM tRNAi^Met, 2 μM mRNA(MF), 100 μM ppGpp, 0.3 mM [^3H] GDP and 1 mM ATP. The experiments were performed in HEPES:Polymix buffer with 5 mM Mg^2+. Error bars represent standard deviations of linear regression estimates, each experiment was performed at least three times. […] Reaction mixture containing combinations of 2 μM RelA, 1 μM 70S initiation complexes programmed with mRNA(MF), 3 μM deacylated tRNA^Phe and test compounds at 500 μM was preincubated at 37 °C for 15 minutes prior to loading 50 μl samples on top of a 50 μl 30% sucrose cushion. After centrifugation for 25 minutes (70,000 r.p.m. at 12 °C) the supernatants were quickly aspirated, the pellets resuspended in 20 μl of SDS loading buffer, and the proteins resolved on 10% SDS-PAGE gel.
The ppGpp-analogues reported earlier promote RelA association with 70S ribosome[25][26] and are, therefore, promising tools for generating stable 70S:RelA complexes for structural investigations. […]
3', 300 μM 3H-GDP, 100 μM ppGpp was pre-incubated at 37° C for 2 min and then reaction started by addition of 1 mM ATP, time points (5 μl) taken, quenched with formic acid and analyzed by TLC. […]

Nc1nc2c(ncn2C2CCN(C(=O)P(=O)(O)O)CC2)c(=O)[nH]1 [DR-M014]
Effect on RelA binding to 70S initiation complexes (in words): promote RelA binding to 70S initiation complexes; also recorded: significantly promotes RelA binding
